Legend:
MMP1 metalloprotease = assay: Assay of MMP1 metalloprotease (ELISA, per viable cell unit by MTT) in NHDFs after heat stimulation; format: cell-based, human; conditions: mangiferin 2.10^-4% w/v, MMP1 per viable cell unit vs reference without mangiferin
Excerpt: In this example, to illustrate the inhibitive action of mangiferin on the expression of MMP enzymes, the quantity of MMP1 enzymes present in normal human dermal fibroblasts (NHDFs) after a heat stress in the presence of mangiferin was compared with the quantity obtained for NHDFs in a reference medium subjected to the same conditions but without the presence of mangiferin.
This comparison was made for different conditions of heat treatment (no stress, hot stress, cold stress).
In each case, the tested NHDFs were placed in culture then treated under the following conditions:
The first day (day D), the NHDFs were seeded to a proportion of 160 000 cells/well/mL in 24-well plates in a normal medium.
The following day (day D+1), the culture medium was depleted of serum.
When the test was conducted in the presence of mangiferin, the treatment with mangiferin was complete, i.e. the mangiferin was added to the medium to a content of 2.10^−4 g/100 mL (2.10^−4% w/v) 24 hours before the heat stress, during the heat stress and 24 hours after the onset of heat stress.
On the contrary, no mangiferin at all was added to the references.
After these steps, 24 hours after the heat stress, the MMP1 present in the medium was assayed using a quantitative technique of ELISA type, with a commercial Amersham kit. In parallel, the number of viable cells in the medium was determined using the MTT colorimetric test. On the basis of these elements, a MMP1 content was determined per viable cell unit.
For each of the heat treatment conditions, a reduction in MMP1 content was observed per viable cell unit in the presence of mangiferin, compared with the content obtained in the references without mangiferin. In this respect, a percentage inhibition of MMP1 expression (Pi) is defined which is calculated using the following formula: Pi(as %)=(Tt−Tm)/Tt in which: • Tm designates the MMP1 content per viable cell unit in the presence of mangiferin; • Tt designates the MMP1 content per viable cell unit for the reference without mangiferin under the same heat treatment conditions.

HSP70 [1] = assay: Curative protection: HSP70 immunolabeling in normal human dermal fibroblasts treated with mangiferin after hot heat stress; format: cell-based
Description: The fibroblasts (NHDFS) are seeded (passage 3) onto glass Labtek culture chambers (8 chambers/slide) to a proportion of 10 000 cells/chamber and incubated for 10 hours in an incubator at 37° C., 5% CO2 and 95% humidity. The culture medium consists of DMEM devoid of phenol red (Invitrogen, ref. 31053028) supplemented with 10% fetal calf serum (FCS) (Invitrogen, ref 16010159, batch 40F1420D), 1% of a solution of non-essential amino acids (Invitrogen, ref 11140035), 100 μg/ml penicillin, 100 U/ml streptomycin, 2 mM L-gluthamine and 1% of a sodium pyruvate solution (Invitrogen, ref. 11360039).
The NHDFs are rinsed in the HBSS solution then incubated 15 hours in the culture medium (DMEM with 1% FCS), in an incubator at 37° C., 5% CO2 and 95% humidity.
The cells are subsequently rinsed in an HBSS solution (Invitrogen, ref. 14025050) then placed under conditions of hot thermal stress: incubation 1 hour at +45° C. in the HBSS solution (0.4 ml per chamber).
After the stress, the cells are rinsed in the HBSS solution then treated for 8 hours with the mangiferin solubilized in the DMSO, then diluted in the culture medium (DMEM with 1% FCS) to 2.10^−4%. A reference culture medium is also made on the same slide.
The cells are rinsed in an HBSS solution 8 hours after the stress. The culture chambers are removed and the cells left to dry under a laminar flow hood. […]

HSP70 [2] = assay: Preventive protection: HSP70 immunolabeling in normal human dermal fibroblasts treated with mangiferin before hot heat stress; format: cell-based
Description: Normal human dermal fibroblasts (NHDFs) are seeded (passage 3) onto glass Labtek culture chambers (8 chambers/slide) to a proportion of 10 000 cells/chamber and incubated for 10 hours in an incubator at 37° C., 5% CO2 and 95% humidity. The culture medium consists of DMEM devoid of phenol red (Invitrogen, ref. 31053028) supplemented with 10% fetal calf serum (FCS) (Invitrogen, ref 16010159, batch 40F1420D), 1% of a solution of non-essential amino acids (Invitrogen, ref 11140035), 100 μg/ml penicillin, 100 U/ml streptomycin, 2 mM L-gluthamine and 1% of a sodium pyruvate solution (Invitrogen, ref. 11360039).
The NHDFs are treated for 15 hours with mangiferin solubilized at 0.1% in DMSO, then diluted in the culture medium (DMEM with 1% FCS) to 2.10^−4%. A reference culture medium is also made on the same slide. To validate the study, a slide is treated in the same manner but the cells are not subjected to stress.
The cells are subsequently rinsed in Hanks Balanced Saline Solution (HBSS buffer Invitrogen, ref. 14025050) then placed under hot thermal stress conditions: incubation 1 hour at +45° C. in the HBSS solution (0.4 ml per chamber.).
After the stress, the cells are rinsed in the HBSS solution then incubated 8 hours in the culture medium (DMEM with 1% FCS), in an incubator at 37° C., 5% CO2 and 95% humidity.
The cells are rinsed in HBSS solution 8 hours after the stress. […]

[3] = cited from earlier work

SMILES: O=c1c2cc(O)c(O)cc2oc2cc(O)c([C@@H]3O[C@H](CO)[C@@H](O)[C@H](O)[C@H]3O)c(O)c12 [mangiferin, C-glucoside of tetrahydroxy-1,3,6,7 xanthone]
- Percentage inhibition Pi of MMP1 expression (MMP1 metalloprotease; Cold heat stress: 10 min at −20° C.): 22%
- Percentage inhibition Pi of MMP1 expression (MMP1 metalloprotease; Hot heat stress: 30 min at +45° C.): 51%
- Percentage inhibition Pi of MMP1 expression (MMP1 metalloprotease; Hot heat stress: 30 min at +50° C.): 40%
- Percentage inhibition Pi of MMP1 expression (MMP1 metalloprotease; Hot heat stress: 1 h at +45° C.): 36%
- Percentage inhibition Pi of MMP1 expression (MMP1 metalloprotease; No heat stress: 1 h at +37° C.): 34%
- Labeling of the HSP70s (HSP70 [1]; NHDFs treated with mangiferin 2.10^-4% for 8 hours after stress (1 hour at +45° C.), vs untreated stressed cells): reduced
- Basic expression of the HSP70s (labeling) (HSP70 [1]; NHDFs, no stress, mangiferin 2.10^-4% for 8 hours): not modified
- Labeling of the HSP70s (HSP70 [2]; NHDFs treated with mangiferin 2.10^-4% for 15 hours before stress (1 hour at +45° C.), read 8 hours after stress, vs untreated stressed cells): further intensified
- Basic expression of the HSP70s (labeling) (HSP70 [2]; NHDFs, no stress, mangiferin 2.10^-4% for 15 hours): not modified
- Solubility in alkaline liquids ([3]; alkaline liquids (salt formation by phenol OH groups)): soluble
- Solubility in cold water ([3]; cold water): scarcely soluble

Source: patent US20060088560A1, “Cosmetic use of mangiferin” (LA[…] BIOLOGIE VEGETALE YVES ROCHER, priority 2004, published 2006)
